Laboratory results as given in ChEMBL document CHEMBL1201862, “PubChem BioAssay data set” (2004).
Counter-ions that a name gives are not always drawn.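 Tested at 5 concentrations; 48 h exposure; 96-well plates; endpoints linearly interpolated, else capped at highest concentration. GI50 is the concentration that inhibits growth by half.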 Calls of active or inactive are those of the source. Rule as the data show it: active = GI50 up to about 1.1 µM and inactive = higher.

Key:
Test in all cases: NCI anticancer screen, dose series, 48 h
DLD-1 = system: DLD-1
DMS-114 = system: DMS-114
DMS-273 = system: DMS-273
KM-20L2 = system: KM-20L2
LXFL 529 = system: LXFL 529
SNB-78 = system: SNB-78
XF498 = system: XF498
HOP-18 = system: HOP-18
RXF 631 = system: RXF 631

Row | SMILES | GI50 (DLD-1) | GI50 (DMS-114) | GI50 (DMS-273) | GI50 (KM-20L2) | GI50 (LXFL 529) | GI50 (SNB-78) | GI50 (XF498) | GI50 (HOP-18) | GI50 (RXF 631)
1 | O=C(O)c1c[nH]cc1C(=O)O | > 100 µM (inactive) | > 100 µM (inactive) | > 100 µM (inactive) | > 100 µM (inactive) | > 100 µM (inactive) | > 100 µM (inactive) | > 100 µM (inactive) | – | –
2 | COC(=O)C[C@](O)(CCCC(C)(C)O)C(=O)O[C@@H]1C(OC)=C[C@]23CCCN2CCc2cc4c(cc2[C@H]13)OCO4 [OMACETAXINE MEPESUCCINATE] | 0.0231 µM (active) | 0.0047 µM (active) | 0.00679 µM (active) | 0.0192 µM (active) | – | 0.0682 µM (active) | 0.00914 µM (active) | 0.06 µM (active) | –
3 | CC(C)c1cccc(C(C)C)c1NC(=O)C(=O)C(C(=O)c1ccccc1-c1ccccc1)C1OC(=O)c2ccccc21 (stereo unspecified) | – | 17.7 µM (inactive) | 22.9 µM (inactive) | 21.5 µM (inactive) | 17.7 µM (inactive) | 21.9 µM (inactive) | 13.3 µM (inactive) | – | –
4 | CCN(CCCl)CCNc1c2ccccc2nc2ccc(OC)cc12 | 0.46 µM (active) | 0.675 µM (active) | 0.294 µM (active) | 0.448 µM (active) | 0.237 µM (active) | 0.891 µM (active) | 0.891 µM (active) | 2.7 µM (inactive) | 0.425 µM (active)
5 | COc1cc(/C=C(\OC(C)=O)c2ccc3c(c2)OCO3)cc(OC)c1OC | 18.6 µM (inactive) | 13.4 µM (inactive) | 14.8 µM (inactive) | 31.1 µM (inactive) | 14.4 µM (inactive) | 35.5 µM (inactive) | 14 µM (inactive) | 20.9 µM (inactive) | > 10 µM (inactive)
6 | Oc1ccc(Cn2c(-c3ccc(O)cc3)nc3ccccc32)cc1 | > 100 µM (inactive) | > 100 µM (inactive) | > 100 µM (inactive) | > 100 µM (inactive) | > 100 µM (inactive) | – | > 100 µM (inactive) | – | > 100 µM (inactive)
7 | O=C1C(Br)=CC2(C=C1Br)CCNC1=C2C2=NCCc3c[nH]c(c32)C1=O | 0.0182 µM (active) | 0.0401 µM (active) | 0.158 µM (active) | 0.084 µM (active) | – | 0.2 µM (active) | 0.188 µM (active) | 1.98 µM (inactive) | –
8 | CCc1cccc(C)c1NC(=O)CCc1nnc(S)[nH]1 | > 100 µM (inactive) | > 100 µM (inactive) | – | > 100 µM (inactive) | > 100 µM (inactive) | > 100 µM (inactive) | > 100 µM (inactive) | > 100 µM (inactive) | –
9 | CN1CCc2c1nc(-c1ccc([N+](=O)[O-])cc1)c1c2N(C)CC1 | 46.3 µM (inactive) | 32 µM (inactive) | – | > 100 µM (inactive) | > 100 µM (inactive) | > 100 µM (inactive) | > 100 µM (inactive) | 0.16 µM (active) | > 100 µM (inactive)
11 | C/C=C1\C=C(OC)CN(CCc2c[nH]c3ccccc23)C1 | > 100 µM (inactive) | 43.4 µM (inactive) | 49.7 µM (inactive) | 37.6 µM (inactive) | 9.4 µM (inactive) | – | 32.9 µM (inactive) | > 10 µM (inactive) | –
12 | O=C1C=CC2OC(c3ccccc3)C(O)C2O1 (stereo unspecified) | 3.89 µM (inactive) | 4.57 µM (inactive) | 4.91 µM (inactive) | 5.98 µM (inactive) | – | 7.08 µM (inactive) | 2.8 µM (inactive) | 0.984 µM (active) | –
13 | O=C(c1cc2ccccc2o1)N(Cc1ccccc1)c1ccccc1 | 22.8 µM (inactive) | 19.3 µM (inactive) | 30.8 µM (inactive) | 17.3 µM (inactive) | 30.8 µM (inactive) | 63.1 µM (inactive) | 23.3 µM (inactive) | 30.5 µM (inactive) | 26.9 µM (inactive)
14 | CC1CC(=O)CC[C@@H]1OCc1ccccc1 (stereo partly specified) | > 100 µM (inactive) | 94.2 µM (inactive) | > 100 µM (inactive) | > 100 µM (inactive) | – | > 100 µM (inactive) | > 100 µM (inactive) | > 100 µM (inactive) | –
15 | CCN(CC)C(=O)C(C)n1cc(C)c(=O)[nH]c1=O (stereo unspecified) | – | > 100 µM (inactive) | > 100 µM (inactive) | > 100 µM (inactive) | > 100 µM (inactive) | > 100 µM (inactive) | > 100 µM (inactive) | – | –
16 | CSCSCC(CO)NC(=O)/C=C\c1c(C)[nH]c(=O)[nH]c1=O (stereo unspecified) | 11.6 µM (inactive) | 5.56 µM (inactive) | 37.8 µM (inactive) | 7.76 µM (inactive) | – | 34.4 µM (inactive) | 1.61 µM (inactive) | 46.1 µM (inactive) | –
17 | CCN(CC)CCNC(=O)c1cccc2cc3ccccc3nc12 | 3.57 µM (inactive) | 5.89 µM (inactive) | 3.95 µM (inactive) | – | – | 7.69 µM (inactive) | – | 15.8 µM (inactive) | 4.6 µM (inactive)
18 | Cc1ccc(C(=O)N2CCCCC2)cc1/N=N/N(C)C | > 100 µM (inactive) | > 100 µM (inactive) | > 100 µM (inactive) | – | > 100 µM (inactive) | – | – | – | –
19 | CCOC1CC2OC(=O)C1C=C2C(=O)OC (stereo unspecified) | 23 µM (inactive) | 20.4 µM (inactive) | – | 55.6 µM (inactive) | 15.5 µM (inactive) | 37.2 µM (inactive) | 23.6 µM (inactive) | 21.1 µM (inactive) | –
20 | CC(=O)CCCCCCCCCCCC[C@@H]1CC[C@H](C)[C@H](O)N1 | > 100 µM (inactive) | > 100 µM (inactive) | > 100 µM (inactive) | 65.2 µM (inactive) | > 100 µM (inactive) | > 100 µM (inactive) | > 100 µM (inactive) | > 100 µM (inactive) | –
21 | CC(=O)N(C)c1ccc(Nc2cc(C)nc3ccc4nc[nH]c4c23)cc1 [ACODAZOLE HYDROCHLORIDE] | 19.4 µM (inactive) | 7.08 µM (inactive) | 9.38 µM (inactive) | 11.9 µM (inactive) | – | 14.4 µM (inactive) | 2.29 µM (inactive) | 12.4 µM (inactive) | –
22 | O=C(Nc1ccc([N+](=O)[O-])cc1)C1C(=O)C(=O)N(c2ccc([N+](=O)[O-])cc2)C1=O (stereo unspecified) | > 100 µM (inactive) | 17.1 µM (inactive) | 11.6 µM (inactive) | 97.3 µM (inactive) | 17.7 µM (inactive) | > 100 µM (inactive) | – | > 100 µM (inactive) | > 100 µM (inactive)
23 | COc1cccc(NC(=S)Nn2c(C)nc3ccccc3c2=O)c1 | > 100 µM (inactive) | > 100 µM (inactive) | > 100 µM (inactive) | – | > 100 µM (inactive) | – | – | 83.6 µM (inactive) | –
24 | Cc1n(CC(C)C)c2c([n+]1C)C(=O)c1ccccc1C2=O | 0.0813 µM (active) | < 0.0161 µM (active) | < 0.0484 µM (active) | 0.0383 µM (active) | < 0.0375 µM (active) | 0.403 µM (active) | 0.252 µM (active) | 0.565 µM (active) | –
25 | Cc1nc(-n2nc(-c3ccccc3)cc2-c2ccccc2)sc1C(=O)/C=C/c1ccccc1 | > 100 µM (inactive) | – | > 100 µM (inactive) | > 100 µM (inactive) | – | > 100 µM (inactive) | – | > 100 µM (inactive) | > 100 µM (inactive)
26 | COC(=O)CCC(=O)Nc1cc(C)ccc1C | > 100 µM (inactive) | > 100 µM (inactive) | > 100 µM (inactive) | – | > 100 µM (inactive) | > 100 µM (inactive) | > 100 µM (inactive) | > 100 µM (inactive) | > 100 µM (inactive)
27 | CN1CCCNCCN(CCc2ccccn2)CCCN(C)CC1 | > 88.1 µM (inactive) | > 42.6 µM (inactive) | 27.8 µM (inactive) | > 100 µM (inactive) | > 75.3 µM (inactive) | > 100 µM (inactive) | > 100 µM (inactive) | > 100 µM (inactive) | > 100 µM (inactive)
28 | O=C(c1ccc(F)cc1)c1cccc(C(=O)c2ccc(F)cc2)n1 | > 100 µM (inactive) | 23.9 µM (inactive) | 26.3 µM (inactive) | > 100 µM (inactive) | > 79.1 µM (inactive) | 17.7 µM (inactive) | 20.9 µM (inactive) | 53.2 µM (inactive) | –
29 | Cc1cc2c(=O)n(-c3ccc(F)cc3)c(C)nc2c(C(=O)O)c1C | > 100 µM (inactive) | > 100 µM (inactive) | > 100 µM (inactive) | > 100 µM (inactive) | > 100 µM (inactive) | > 100 µM (inactive) | – | > 100 µM (inactive) | –
30 | NNC(=O)C(=O)N/N=C(\CCCC(=O)Nc1ccc(Cl)cc1)CC(=O)c1ccc(F)cc1 | > 100 µM (inactive) | > 100 µM (inactive) | – | 7.31 µM (inactive) | 67.1 µM (inactive) | > 100 µM (inactive) | > 100 µM (inactive) | 52.8 µM (inactive) | > 100 µM (inactive)
